# Measured values as given in US20230059136A1, “THE COMPOUNDS AND COMPOSITIONS FOR TREATING CONDITIONS ASSOCIATED WITH NLRP ACTIVITY” (Novartis AG, priority 2018, published 2023).
# Test system: IL-1β production in PMA-differentiated THP-1 cells
# Assay: IL-1β production in PMA-differentiated THP-1 cells stimulated with gramicidin (hTHP-1 assay containing 2% fetal bovine serum)
# Type: cell-based, human
# Details: Homo sapiens, THP-1, Table B1; 2% fetal bovine serum; cells printed as numeric bound; read-out: hTHP-1 IC50 (Average IC50 of compounds in hTHP-1 assay)
# Summary of the method: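 THP-1 cells were differentiated with PMA 20 ng/ml for 16-18 h, then plated at 50,000 cells/well in RPMI with 2% FBS. They were preincubated 1 h with compound (100–0.0017 μM final, 0.37% DMSO), then stimulated with gramicidin 5 μM for 2 h. Supernatant IL-1β was measured by HTRF.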
row,SMILES,IC50 [nM]
1,"CCc1cc2c(c(C(C)C)c1CC(=O)N=S(N)(=O)c1cc(C(C)(C)O)cs1)COC2 (single isomer, unassigned) [Example 296, (S) or (R)-N-(amino(4-(2-hydroxypropan-2-yl)thiophen-2-yl)(oxo)-λ^6-sulfaneylidene)-2-(6-ethyl-4-isopropyl-1,3-dihydroisobenzofuran-5-yl)acetamide]",> 30000
2,"COCc1cc(C(C)C)c(CC(=O)N=S(N)(=O)c2ncc(C(C)(C)O)s2)c(C(C)C)n1 (single isomer, unassigned) [Example 273, (S) or (R)-N-(amino (5-(2-hydroxypropan-2-yl)thiazol-2-yl)(oxo)-λ^6-sulfaneylidene)-2-(2,4-diisopropyl-6-(methoxymethyl)pyridin-3-yl)acetamide]",> 30000
3,"CCc1cc2c(c(C(C)C)c1CC(=O)N=S(N)(=O)c1cnc(C(C)(C)O)s1)COC2 (single isomer, unassigned) [Example 292, (S) or (R)-N-(amino(2-(2-hydroxypropan-2-yl)thiazol-5-yl)(oxo)-λ^6-sulfaneylidene)-2-(6-ethyl-4-isopropyl-1,3-dihydroisobenzofuran-5-yl)acetamide]",> 30000
4,"CNCc1ccc(S(N)(=O)=NC(=O)Cc2c(C(C)C)cc(C(F)F)nc2C(C)C)cc1 (single isomer, unassigned) [Example 323, (S) or (R)-N-(amino(4-((methylamino)methyl)phenyl)(oxo)-λ^6-sulfaneylidene)-2-(6-(difluoromethyl)-2,4-diisopropylpyridin-3-yl)acetamide]",> 30000
5,"CC(C)c1cc2c(c(C(C)C)c1CC(=O)N=S(N)(=O)c1ccc(C(C)(C)O)cc1)COC2 (single isomer, unassigned) [Example 302, (S) or (R)-N-(amino(4-(2-hydroxypropan-2-yl)phenyl)(oxo)-λ^6-sulfaneylidene)-2-(4,6-diisopropyl-1,3-dihydroisobenzofuran-5-yl)acetamide]",> 30000

# Same assay, conditions: Homo sapiens, THP-1, Table B1; 2% fetal bovine serum; class symbols; read-out: hTHP-1 IC50 (Average IC50 of compounds in hTHP-1 assay)
row,SMILES,IC50 [nM]
1,"CC(C)c1cc(COC2CCCC2)cc(C(C)C)c1CC(=O)N=S(N)(=O)c1cc(C(C)(C)O)n(-c2ccc(F)cc2)n1 (single isomer, unassigned) [Example 283, (R) or (S)-N-(amino(1-(4-fluorophenyl)-5-(2-hydroxypropan-2-yl)-1H-pyrazol-3-yl)(oxo)-λ^6-sulfaneylidene)-2-(4-((cyclopentyloxy)methyl)-2,6-diisopropylphenyl) acetamide]",200 to 1000
2,"CC(C)c1cc2c(c(C(C)C)c1CC(=O)N=S(N)(=O)c1ccc(CN(C)C)cc1)COC2 (single isomer, unassigned) [Example 191, (R) or (S)-N-(amino(4-((dimethylamino)methyl)phenyl)(oxo)-λ^6-sulfaneylidene)-2-(4,6-diisopropyl-1,3-dihydroisobenzofuran-5-yl)acetamide]",1000 to 5000
3,"CC(C)c1cc2c(c(C(C)C)c1CC(=O)N=S(=O)(NC#N)c1cc(C(C)(C)O)cs1)COC2 (stereo in doubt) [Example 343, (S)-N-(cyanamido(4-(2-hydroxypropan-2-yl)thiophen-2-yl)(oxo)-λ^6-sulfaneylidene)-2-(4,6-diisopropyl-1,3-dihydroisobenzofuran-5-yl)acetamide]",5000 to 30000
4,"CC(C)c1ccc(F)c(C(C)C)c1CC(=O)N=S(N)(=O)c1cnn2c1OCCC2 (centres unmarked) [Example 268, N-(amino(6,7-dihydro-5H-pyrazolo[5,1b][1,3]oxazin-3-yl)(oxo)-λ^6-sulfaneylidene)-2-(3-fluoro-2,6-diisopropylphenyl)acetamide]",1000 to 5000
5,"CC(C)c1cc2c(c(C(C)C)c1CC(=O)N=S(N)(=O)c1ccn(C(F)F)n1)COC2 (centres unmarked) [Example 243, N-(amino(1-(difluoromethyl)-1H-pyrazol-3-yl)(oxo)-λ^6-sulfaneylidene)-2-(4,6-diisopropyl-1,3-dihydroisobenzofuran-5-yl) acetamide]",5000 to 30000
6,"CCc1c2c(cc(C(C)C)c1CC(=O)N=S(N)(=O)c1sc(C(C)(C)O)cc1F)COC2 (centres unmarked) [Example 264, N-(amino(3-fluoro-5-(2-hydroxypropan-2-yl)thiophen-2-yl)(oxo)-λ^6-sulfaneylidene)-2-(4-ethyl-6-isopropyl-1,3-dihydroisobenzofuran-5-yl)acetamide]",200 to 1000
7,"CC(C)c1cc(F)cc(C(C)C)c1CC(=O)NS(=N)(=O)c1ncc(C(C)(C)O)s1 (single isomer, unassigned) [Example 9]",200 to 1000
8,"CC(C)c1cc(F)cc(C(C)C)c1CC(=O)NS(=N)(=O)c1ccc(C(C)(C)O)cc1 (single isomer, unassigned) [Example 2]",1000 to 5000
9,"CC(C)c1cc(C#CC2CCOCC2)cc(C(C)C)c1CC(=O)N=S(N)(=O)c1cc(C(C)(C)O)n(-c2ccccc2)n1 (single isomer, unassigned) [Example 277, (R) or (S)-N-(amino (5-(2-hydroxypropan-2-yl)-1-phenyl-1H-pyrazol-3-yl)(oxo-λ^6-sulfaneylidene)-2-(2,6-diisopropyl-4-((tetrahydro-2H-pyran-4-yl)ethynyl)phenyl)acetamide]",200 to 1000
10,"CC(C)c1cc(C#N)c(F)c(C(C)C)c1CC(=O)N=S(N)(=O)c1cc(C(C)(O)CO)n(-c2ccccc2)n1 (centres unmarked) [Example 247, N-(amino(5-(1,2-dihydroxypropan-2-yl)-1-phenyl-1H-pyrazol-3-yl)(oxo)-λ^6-sulfaneylidene)-2-(4-cyano-3-fluoro-2,6-diisopropylphenyl)acetamide]",1000 to 5000
11,"CC(C)c1cc(F)cc(C(C)C)c1CC(=O)N=[S@](=O)(NC#N)c1ncc(C(C)(C)O)s1 [Example 341, (S)—N-(cyanamido(5-(2-hydroxypropan-2-yl)thiazol-2-yl)(oxo)-λ^6-sulfaneylidene)-2-(4-fluoro-2,6-diisopropylphenyl)acetamide]",200 to 1000

# Same assay, conditions: Homo sapiens, THP-1, Table B2; 2% fetal bovine serum; cells printed as numeric bound; read-out: hTHP-1 IC50 (Average IC50 of compounds in hTHP-1 assay)
row,SMILES,IC50 [nM]
1,"CNCc1ccc(S(N)(=O)=NC(=O)Cc2c(-c3ccccc3)ccc3c2CCC3)cc1 (racemic) [Example 380, (R) and (S)—N-(amino(4-((methylamino)methyl)phenyl)(oxo)-λ^6-sulfaneylidene)-2-(5-phenyl-2,3-dihydro-1H-inden-4-yl)acetamide]",> 30000
2,"CC(C)c1cc2c(cnn2C)c(C(C)C)c1CC(=O)N=S(N)(=O)c1ncc(C(C)(C)O)s1 (centres unmarked) [Example 391, N-(Amino(5-(2-hydroxypropan-2-yl)thiazol-2-yl)(oxo)-λ^6-sulfaneylidene)-2-(4,6-diisopropyl-1-methyl-1H-indazol-5-yl)acetamide]",> 30000

# Same assay, conditions: Table B1; 2% fetal bovine serum; class symbols; read-out: hTHP-1 IC50 (Average IC50 of compounds in hTHP-1 assay)
row,SMILES,IC50 [nM]
1,"CC(C)c1cc(F)cc(C(C)C)c1CC(=O)N=S(N)(=O)c1sc(C(C)(C)O)cc1F (single isomer, unassigned) [Example 50, (S)- or (R)-2-(4-fluoro-2,6-diisopropylphenyl)-N-(3-fluoro-5-(2-hydroxypropan-2-yl)thiophen-2-ylsulfonimidoyl)acetamide]",8 to 40
2,"Cc1nc(C(C)(C)O)sc1S(N)(=O)=NC(=O)Cc1c(C(C)C)cc(OC(F)F)cc1C(C)C (single isomer, unassigned) [Example 85, (R)- or (S)-2-(4-(difluoromethoxy)-2,6-diisopropylphenyl)-N-(2-(2-hydroxypropan-2-yl)-4-methylthiazol-5-ylsulfonimidoyl)acetamide]",5000 to 30000
3,"CC(C)c1cc(Cl)c(F)c(C2CC2)c1CC(=O)N=S(N)(=O)c1sc(C(C)(C)O)cc1F (centres unmarked) [Example 20, 2-(4-chloro-2-cyclopropyl-3-fluoro-6-isopropylphenyl)-N-(3-fluoro-5-(2-hydroxypropan-2-yl)thiophen-2-ylsulfonimidoyl)acetamide]",200 to 1000
4,"CC(C)c1cc2c(c(C(C)C)c1CC(=O)N=S(N)(=O)c1cnc(C(C)(C)O)s1)COC2 (single isomer, unassigned) [Example 184, (S) or (R)-N-(amino(2-(2-hydroxypropan-2-yl)thiazol-5-yl)(oxo)-λ^6-sulfaneylidene)-2-(4,6-diisopropyl-1,3-dihydro-isobenzofuran-5-yl)acetamide]",5000 to 30000
5,"CC(C)c1cc(OC(F)F)cc(C(C)C)c1CC(=O)N=S(N)(=O)c1sc(C(C)(C)O)cc1F (centres unmarked) [Example 21, 2-(4-(difluoromethoxy)-2,6-diisopropylphenyl)-N-(3-fluoro-5-(2-hydroxypropan-2-yl)thiophen-2-ylsulfonimidoyl)acctamide]",40 to 200
6,"CCc1cc(OC(F)F)cc(C(C)C)c1CC(=O)N=S(N)(=O)c1sc(C(C)(C)O)cc1F (centres unmarked) [Example 36, 2-(4-(difluoromethoxy)-2-ethyl-6-isopropylphenyl)-N-(3-fluoro-5-(2-hydroxypropan-2-yl)thiophene-2-sulfonimidoyl)acetamide]",200 to 1000
7,"CC(C)c1cc2c(c(C(C)C)c1CC(=O)N=S(N)(=O)c1sc(C(C)(C)O)cc1F)COC2 (single isomer, unassigned) [Example 321, (R) or (S)-N-(amino (3-fluoro-5-(2-hydroxypropan-2-yl)thiophen-2-yl)(oxo)-λ^6-sulfaneylidene)-2-(4,6-diisopropyl-1,3-dihydroisobenzofuran-5-yl)acetamide]",40 to 200

# Same assay, conditions: Table B2; 2% fetal bovine serum; class symbols; read-out: hTHP-1 IC50 (Average IC50 of compounds in hTHP-1 assay)
row,SMILES,IC50 [nM]
1,"CC(C)c1cc2c(c(C(C)C)c1CC(=O)N=S(N)(=O)c1ccn(CCO)n1)OC(F)(F)O2 (racemic) [Example 348, (R) and (S)—N-(amino(1-(2-hydroxyethyl)-1H-pyrazol-3-yl)(oxo)-λ^6-sulfaneylidene)-2-(2,2-difluoro-4,6-diisopropylbenzo[d][1,3]dioxol-5-yl)acetamide]",200 to 1000
